Common to all, as to format: cell-based
Test [1] deals with T1, VIPR2 (Homo sapiens, UniProt P41587).
T1 construct: expressed in transfected cells
T1 sequence (P41587 24-438): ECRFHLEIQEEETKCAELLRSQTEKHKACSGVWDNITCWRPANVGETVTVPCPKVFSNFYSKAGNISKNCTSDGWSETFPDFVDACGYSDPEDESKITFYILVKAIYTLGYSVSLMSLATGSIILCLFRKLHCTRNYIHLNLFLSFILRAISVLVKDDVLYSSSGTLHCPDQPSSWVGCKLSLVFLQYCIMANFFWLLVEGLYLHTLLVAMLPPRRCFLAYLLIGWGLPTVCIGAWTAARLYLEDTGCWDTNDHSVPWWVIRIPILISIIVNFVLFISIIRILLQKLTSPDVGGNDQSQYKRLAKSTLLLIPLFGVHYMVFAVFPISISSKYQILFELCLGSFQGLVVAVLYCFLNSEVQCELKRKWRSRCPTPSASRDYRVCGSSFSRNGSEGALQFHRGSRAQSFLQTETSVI
Briefly: Inhibition of VIP-induced cAMP elevation (% Activity). An excerpt: In a further non-limiting embodiment of the invention, the ability of a compound to inhibit VIPR2 and […] may be measured using a Homogeneous Time-Resolved Fluorescence (“HTRF® assay; Cisbio Bioassays) as used in Chu et al., 2010, Molecular Pharmacol. 7795-101. In a method as used in Chu et al., 2010, Molecular Pharmacol. 7795-101, HEK293 cells may be transfected with nucleic acid encoding VIPR2, for example human VIPR2 (“hVIPR2”), for example comprised in a vector such as pCDNA3.1 vector. Successful transformnnants may then be selected, for example using 800 μg/ml G418. Clonal stable cell lines may then be generated by limited dilution to single cells and then may be clonally expanded and tested for VIP-dependent cAMP response. For the cAMP assay, about 3000-15,000 cells (in about 4-25 μl) may be placed in a well of an assay plate. The next day, inhibitor or test inhibitor and VIP may be added in a volume about 1-2 percent of the initial volume. Assay plates may then be returned to a cell incubator for 30 min before addition of a one-half volume of cAMP conjugate and, relative to the amount of cAMP conjugate, an equal volume of anti-cAMP conjugate (Cisbio). After at least 1 h of room-temperature incubation, HTRF signal may be read, for example using Viewlux or EnVision (PerkinElmer Life and Analytical Sciences, Waltham, Mass.). The ratio of […] at 665 nm and 620 nm times 10,000 may be calculated and plotted.
(§1) A series of compounds were prepared using a synthetic method analogous to that set forth in Scheme 1, above, and then tested for their ability to inhibit VIP-induced cAMP elevation and β-arrestin recruitment.
(§2) A series of compounds were prepared using a synthetic method analogous to that set forth in Scheme 1, above, and then tested for their ability to inhibit VIP-induced cAMP elevation and β-arrestin recruitment, as described herein (Discoverx Corporation, Fremont, Calif., US). Compound activities were also tested in a BRET-based assay, as described herein. The results are shown below in Tables 1-4, above.

For test [2], the target named is T1, VIPR2. As to the kind of experiment: BRET-based VIPR2 activation assay (CAMYEL cAMP sensor, CHO cells, VIP background). Conditions: for IC50: Table 3, read-out: IC50 (from BRET). The method, then:
FIG. 5A-B. Results of BRET-based VIPR2 activation assays in cells expressing both the VIPR2 receptor and CAMYEL (see FIG. 1A for schematic). a) Inhibitory dose-response curves on treatment of CHO cells with increasing concentrations of a batch of antagonists against a background of VIP activation (VIP=5 nM).
In such a system, a detector cell is used which expresses both the VIPR2 receptor and “CAMYEL,” a YFP-Epac-RLuc8 BRET sensor construct. This construct includes Epac1, a guanine nucleotide exchange factor activated by direct binding of cAMP, fused with an enhanced YFP and Renilla luciferase 8 (Rluc8) allowing BRET upon cAMP-induced conformational changes (Jiang et al., 2007, J Biol Chem. 282:10576-10584). In response to elevated cAMP levels, there is a conformational change in Epac and therefore a change in the proximity of the fused chromophores, Rluc8 and YFP, resulting in measurable energy transfer. Coexpression of this BRET construct with VIPR2. optionally tagged at the N-terminus with a signal peptide and FLAG epitope (SF-VIPR2), for example in HEK293 cells, allows for detection of a VIPR2-specific response to cAMP. BRET readout may be calculated by quantifying the ratio of the light emitted by the acceptor, YFP (λ=525 nm), over the emission from the donor, RLuc8 (λ=485 nm). The proximity of the donor and acceptor, and therefore the BRET ratio, decreases in the presence of cAMP. In non-limiting specific embodiments, a stable cell line may be generated for this assay using the Flp-In T-Rex system in HEK293 cells. This system allows site-specific single copy integration of the gene of interest and control of expression levels using the Tet-repressor site making receptor expression tetracycline-inducible. For example, a CAMYEL and VIPR2 expressing line may be induced with 0.01 μg/ml tetracycline, then, 24 hours later cells may be collected and distributed into 96-well plates. After treatment with candidate inhibitor compound, for example at 5, 1 and 0.5 μM concentrations, cells may be incubated with the light emitting luciferin, coelenterazine H, for 5 min and incubated for 5 min with VIP at increasing concentrations, for example ranging from 100 pM to 10 μM. The fluorescence and luminescence may then be quantified, for example using a PHERAstar (BMG) plate reader. […] Alternatively, analogous experiments may be performed using human cells harvested from a patient having a VIPR2 copy number variation, for example (but not by way of limitation) pluripotent stem cells prepared from such a patient and then transfected with a CAMYEL construct.
as §2
Numerous cellular assays were developed that were able to detect VIP responses absent of interference from non-specific vasopressin receptors using this CHO based system. VIPR2 is a Gs coupled receptor. Activation of VIPR2 by VIP leads to both an elevation in cAMP signaling and the recruitment of β-arrestin. A variety of combinations can be transiently transfect into these CHO cells for the assessment of cellular responses to VIP. For the BRET readout CHO cell lines expressing an YFP-Epac-RLuc8 (CAMYEL) BRET sensor were used to detect changes in cAMP. This construct includes Epac1, a guanine nucleotide exchange factor activated by direct binding of cAMP, fused to an enhanced YFP and RLuc8 allowing a change in BRET upon cAMP-induced conformational changes. The key for medium to high throughput screening assays is the use of stable cell lines allowing the continuous assaying of multiple compounds with the ability to generate large numbers of cells for rapid use. […]

In test [3] the target is T1, VIPR2. As to the kind of experiment: Inhibition of VIP-induced β-arrestin recruitment (% Activity).
Description: In a further non-limiting embodiment of the invention, the ability of a compound to inhibit VIPR2 GPCR activity may be tested, for example, using the PathHunter® eXpress 3-Arrestin GPCR system (Discoverx Corporation, Fremont, Calif., US), as used by Chu et al., 2010, Molecular Pharmacol. 7795-101. In this assay, J-Arrestin is fused to the “Enzyme Acceptor” (“EA”), an N-terminal deletion mutant of β-gal, and the GPCR of interest is fused to a smaller (42 amino acids), weakly complementing portion of the β-gal enzyme (termed “ProLink™”). In cells that stably express these fusion proteins, the interaction of β-Arrestin and the GPCR following ligand stimulation forces the complementation of the two β-gal fragments resulting in the formation of a functional enzyme that converts substrate to detectable signal. In the absence of an interaction between the GPCR and β-Arrestin, the enzyme activity is low due to the low affinity of the two enzyme fragments. For example, a nucleic acid encoding VIPR2, for example hVIPR2, may be cloned into the ProLink vector (DiscoveRx) for GPCR-ProLink fusion protein production. Parental HEK293 cells that stably express β-arrestin2-β-gal-EA fusion protein (DiscoveRx) may be detached and transiently transfected with the VIPR2-containing vector using Fugene6 transfection reagent in suspension mode. Transfected cells in assay medium may be plated into test plates, for example at 15,000 cells/25 μl/well. After overnight incubation, 500 n1 of an inhibitor or test inhibitor may be introduced into the test plate followed by 2 h incubation at 37° C., 5% CO2. Flash detection reagents may be added at 12.5 μl/well. After 5 min to 1 h of room-temperature incubation, the cell plates may be read on CLIPR (PerkinElmer Life and Analytical Sciences) or Acquest (Molecular Devices, Sunnyvale, Calif.) for luminescence signal.
as §1, §2

Entries after “also recorded” stand apart in the source; their conditions may differ.

Turning to `O=C([C@H](Cc1ccccc1)C[C@H](O)CNS(=O)(=O)c1ccc([N+](=O)[O-])cc1)N1CCOCC1` [Compound B9A], in test [1] (Batch 2), the inhibition at 0.5 µM came out at 3.8%.

As to `CCC(C)Oc1ccc(S(=O)(=O)NC[C@@H](O)C[C@@H](Cc2ccccc2)C(=O)N[C@H]2c3ccccc3C[C@H]2O)cc1` (stereo partly shown) [Compound X120], the half-inhibitory concentration (IC50) in test [2] turned out to be 45.8 µM. In the case of `O=C(N[C@H]1c2ccccc2C[C@H]1O)[C@H](Cc1ccccc1)C[C@H](O)CNS(=O)(=O)c1ccc(C(F)(F)F)cc1` [F], in test [2] (compared with Compound 1 or other compounds (FIG. 1C, FIG. 5B)), the “VIPR2 inhibition in BRET-based assay, in words” value is “greater activity than Compound 1; also recorded: greater effect on VIPR2 inhibition than Compound 1”. `O=C(N[C@H]1c2ccccc2C[C@H]1O)[C@H](Cc1ccccc1)C[C@H](O)CNS(=O)(=O)c1ccc([N+](=O)[O-])cc1` [Compound 1, reference compound]: in test [2] (increasing doses of compound (FIG. 1C)), the “shift of VIP dose-response curve” value is given as “rightward shift”. As to `CCC(C)c1ccc(S(=O)(=O)NC[C@@H](O)C[C@@H](Cc2ccccc2)C(=O)N[C@H]2c3ccccc3C[C@H]2O)cc1` (stereo partly shown) [Compound X117], the IC50 in test [2] came to 152 µM. Same read-out and setting: the same measure for `CCCc1ccc(S(=O)(=O)NC[C@@H](O)C[C@@H](Cc2ccccc2)C(=O)N[C@H]2c3ccccc3C[C@H]2O)cc1` [Compound X113]: 4.2 µM; for `Cc1ccc(S(=O)(=O)NC[C@@H](O)C[C@@H](Cc2ccccc2)C(=O)N[C@H]2c3ccccc3C[C@H]2O)cc1C` [Compound X116]: 13.3 µM. On the same count and under the same terms, for `CCCOc1ccc(S(=O)(=O)NC[C@@H](O)C[C@@H](Cc2ccccc2)C(=O)N[C@H]2c3ccccc3C[C@H]2O)cc1` [Compound X118] the value was 4.2 µM. For the compound `COc1cc(C(=O)NC[C@@H](O)C[C@@H](Cc2ccccc2)C(=O)N[C@H]2c3ccccc3C[C@H]2O)cc(OC)c1OC` [H], the inhibition at 1 µM in test [3] (1 μM, Batch 1) was found to be 3.2%. `CS(=O)(=O)c1ccc(S(=O)(=O)NC[C@@H](O)C[C@@H](Cc2ccccc2)C(=O)N[C@H]2c3ccccc3C[C@H]2O)cc1` [Compound X111]: the IC50 in test [2] is 13.3 µM. Turning to `O=C(NC1CCCc2ccccc21)[C@@H](Cc1ccccc1)C[C@H](O)CNS(=O)(=O)c1ccc([N+](=O)[O-])cc1` (stereo partly shown) [Compound B13B], the % activity (β-arrestin recruitment) at 1 µM in test [3] (1 μM, Batch 2) was found to be 5.9%. As to `O=C(N[C@H]1c2ccccc2C[C@H]1O)[C@H](Cc1ccccc1)C[C@H](O)CNS(=O)(=O)c1ccc(OC(F)(F)F)cc1` [Compound X112], the IC50 in test [2] amounted to 152 µM. On to `CCC(=O)Nc1ccc(S(=O)(=O)NC[C@@H](O)C[C@@H](Cc2ccccc2)C(=O)N[C@H]2c3ccccc3C[C@H]2O)cc1` [Compound X091], for which the inhibition at 0.5 µM in test [3] (Batch 3) was 3.4%.

With `O=C([C@@H](Cc1ccccc1)C[C@H](O)CNS(=O)(=O)c1ccc([N+](=O)[O-])cc1)N1CCCCC1` [Compound B18B], the inhibition at 0.5 µM in test [3] (Batch 2) was 9.5%.

On to `O=C([C@@H](Cc1ccccc1)C[C@H](O)CNS(=O)(=O)c1ccc([N+](=O)[O-])cc1)N1CCOCC1` [Compound B9B], for which, in test [1] (1 μM, Batch 2), the inhibition at 1 µM is -10.4%.

Consider `O=C(N[C@H]1c2ccccc2C[C@H]1O)[C@H](Cc1ccccc1)C[C@H](O)CNS(=O)(=O)c1ccc(C(=O)N2CCCCC2)cc1` [Compound X101], for which the inhibition at 0.5 µM in test [1] (Batch 3) was -5.3%.
